Measured values from PubChem BioAssay (NCI).
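In this assay, cells in 96-well plates receive the compound at five concentrations for 48 hours. Endpoints are linearly interpolated between the surrounding concentrations. The concentration for 50% growth inhibition is given as GI50. At the TGI there is no net growth.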

Experiments:
Test in all cases: inhibition of tumour cell growth, NCI panel, 48 h
[1] = system: NCI/ADR-RES ovarian
[2] = system: MDA-MB-231 breast
[3] = system: SR leukemia
[4] = system: RXF 393 renal
[5] = system: A498 renal
[6] = system: NCI-H522 lung
[7] = system: HCT-15 colon
[8] = system: DU-145 prostate
[9] = system: UACC-257 melanoma
[10] = system: MALME-3M melanoma
[11] = system: MDA-MB-435
[12] = system: MCF7 breast
[13] = system: 786-0 renal
[14] = system: SK-MEL-5 melanoma
[15] = system: KM12 colon
[16] = system: SNB-75 CNS
[17] = system: NCI-H226 lung
[18] = system: OVCAR-5 ovarian
[19] = system: OVCAR-8 ovarian
[20] = system: A549 NSCLC
[21] = system: UO-31 renal
[22] = system: HCT-116 colon
[23] = system: SF-539 CNS
[24] = system: NCI-H460 lung
[25] = system: BT-549 breast
[26] = system: SF-268 CNS
[27] = system: U251 CNS
[28] = system: HOP-62 NSCLC
[29] = system: SK-MEL-28 melanoma
[30] = system: CCRF-CEM leukemia
[31] = system: SW-620 colon
[32] = system: HT29 colon
[33] = system: UACC-62 melanoma
[34] = system: K-562 leukemia
[35] = system: SN12C renal
[36] = system: SNB-19 CNS
[37] = system: SK-OV-3 ovarian
[38] = system: COLO 205 colon
[39] = system: LOX IMVI melanoma
[40] = system: IGROV1 ovarian
[41] = system: T-47D breast
[42] = system: OVCAR-4 ovarian
[43] = system: HCC-2998 colon
[44] = system: TK-10 renal
[45] = system: HL-60(TB) leukemia
[46] = system: EKVX NSCLC
[47] = system: ACHN renal
[48] = system: SF-295 CNS
[49] = system: NCI-H23 lung
[50] = system: M14 melanoma
[51] = system: MOLT-4 leukemia
[52] = system: OVCAR-3 ovarian
[53] = system: HS 578T breast
[54] = system: RPMI-8226 leukemia
[55] = system: CAKI-1 renal
[56] = system: PC-3 prostate

SMILES: CCCCCCCCCC(CCCC(O)CC(=O)O)OC1OC(COC2OC(C)C(O)C(O)C2O)C(O)C(O)C1OC1OC(CO)C(O)C(O)C1OC1OC(C)C(OC(=O)CC(C)C)C(O)C1O (configuration not stated)
- GI50 [1]: > 60 µM
- TGI [1]: > 60 µM
- GI50 [2]: > 60 µM
- TGI [2]: > 60 µM
- GI50 [3]: > 60 µM
- TGI [3]: > 60 µM
- GI50 [4]: > 60 µM
- TGI [4]: > 60 µM
- GI50 [5]: 0.459 µM
- TGI [5]: 34.5 µM
- GI50 [6]: > 60 µM
- TGI [6]: > 60 µM
- GI50 [7]: > 60 µM
- TGI [7]: > 60 µM
- GI50 [8]: > 60 µM
- TGI [8]: > 60 µM
- GI50 [9]: > 60 µM
- TGI [9]: > 60 µM
- GI50 [10]: > 60 µM
- TGI [10]: > 60 µM
- GI50 [11]: > 60 µM
- TGI [11]: > 60 µM
- GI50 [12]: > 60 µM
- TGI [12]: > 60 µM
- GI50 [13]: > 60 µM
- TGI [13]: > 60 µM
- GI50 [14]: > 60 µM
- TGI [14]: > 60 µM
- GI50 [15]: > 60 µM
- TGI [15]: > 60 µM
- GI50 [16]: > 60 µM
- TGI [16]: > 60 µM
- GI50 [17]: > 60 µM
- TGI [17]: > 60 µM
- GI50 [18]: > 60 µM
- TGI [18]: > 60 µM
- GI50 [19]: > 60 µM
- TGI [19]: > 60 µM
- GI50 [20]: > 60 µM
- TGI [20]: > 60 µM
- GI50 [21]: > 60 µM
- TGI [21]: > 60 µM
- GI50 [22]: > 60 µM
- TGI [22]: > 60 µM
- GI50 [23]: > 60 µM
- TGI [23]: > 60 µM
- GI50 [24]: > 60 µM
- TGI [24]: > 60 µM
- GI50 [25]: > 60 µM
- TGI [25]: > 60 µM
- GI50 [26]: > 60 µM
- TGI [26]: > 60 µM
- GI50 [27]: > 60 µM
- TGI [27]: > 60 µM
- GI50 [28]: > 60 µM
- TGI [28]: > 60 µM
- GI50 [29]: > 60 µM
- TGI [29]: > 60 µM
- GI50 [30]: > 60 µM
- TGI [30]: > 60 µM
- GI50 [31]: > 60 µM
- TGI [31]: > 60 µM
- GI50 [32]: > 60 µM
- TGI [32]: > 60 µM
- GI50 [33]: > 60 µM
- TGI [33]: > 60 µM
- GI50 [34]: > 60 µM
- TGI [34]: > 60 µM
- GI50 [35]: > 60 µM
- TGI [35]: > 60 µM
- GI50 [36]: > 60 µM
- TGI [36]: > 60 µM
- GI50 [37]: > 60 µM
- TGI [37]: > 60 µM
- GI50 [38]: > 60 µM
- TGI [38]: > 60 µM
- GI50 [39]: > 60 µM
- TGI [39]: > 60 µM
- GI50 [40]: > 60 µM
- TGI [40]: > 60 µM
- GI50 [41]: > 60 µM
- TGI [41]: > 60 µM
- GI50 [42]: > 60 µM
- TGI [42]: > 60 µM
- GI50 [43]: > 60 µM
- TGI [43]: > 60 µM
- GI50 [44]: > 60 µM
- TGI [44]: > 60 µM
- GI50 [45]: > 60 µM
- TGI [45]: > 60 µM
- GI50 [46]: > 60 µM
- TGI [46]: > 60 µM
- GI50 [47]: > 60 µM
- TGI [47]: > 60 µM
- GI50 [48]: > 60 µM
- TGI [48]: > 60 µM
- GI50 [49]: > 60 µM
- TGI [49]: > 60 µM
- GI50 [50]: > 60 µM
- TGI [50]: > 60 µM
- GI50 [51]: > 60 µM
- TGI [51]: > 60 µM
- GI50 [52]: > 60 µM
- TGI [52]: > 60 µM
- GI50 [53]: > 60 µM
- TGI [53]: > 60 µM
- GI50 [54]: > 60 µM
- TGI [54]: > 60 µM
- GI50 [55]: > 60 µM
- TGI [55]: > 60 µM
- GI50 [56]: > 60 µM
- TGI [56]: > 60 µM
